In PubChem BioAssay (NCI):
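Five concentrations, 48 hours, 96-well plates. At the GI50, growth is halved. At the TGI there is no net growth.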

Legend:
Experiment in all cases: growth of human tumour cells (NCI), 48 h
[1] = test system: MDA-MB-231 breast
[2] = test system: LOX IMVI melanoma
[3] = test system: CCRF-CEM leukemia
[4] = test system: DU-145 prostate
[5] = test system: HCT-116 colon
[6] = test system: M14 melanoma
[7] = test system: SF-268 CNS
[8] = test system: A549 NSCLC
[9] = test system: SNB-75 CNS
[10] = test system: SN12C renal
[11] = test system: MOLT-4 leukemia
[12] = test system: SK-OV-3 ovarian
[13] = test system: OVCAR-8 ovarian
[14] = test system: HOP-62 NSCLC
[15] = test system: TK-10 renal
[16] = test system: K-562 leukemia
[17] = test system: NCI-H226 lung
[18] = test system: BT-549 breast
[19] = test system: NCI-H522 lung
[20] = test system: HS 578T breast
[21] = test system: RXF 393 renal
[22] = test system: SW-620 colon
[23] = test system: NCI/ADR-RES ovarian
[24] = test system: ACHN renal
[25] = test system: HT29 colon
[26] = test system: KM12 colon
[27] = test system: NCI-H23 lung
[28] = test system: SK-MEL-28 melanoma
[29] = test system: OVCAR-4 ovarian
[30] = test system: MALME-3M melanoma
[31] = test system: SR leukemia
[32] = test system: COLO 205 colon
[33] = test system: HCT-15 colon
[34] = test system: SF-539 CNS
[35] = test system: MCF7 breast
[36] = test system: PC-3 prostate
[37] = test system: U251 CNS
[38] = test system: HCC-2998 colon
[39] = test system: NCI-H460 lung
[40] = test system: UACC-62 melanoma
[41] = test system: UO-31 renal
[42] = test system: A498 renal
[43] = test system: T-47D breast
[44] = test system: SF-295 CNS
[45] = test system: EKVX NSCLC
[46] = test system: SNB-19 CNS
[47] = test system: SK-MEL-5 melanoma
[48] = test system: OVCAR-5 ovarian
[49] = test system: CAKI-1 renal
[50] = test system: IGROV1 ovarian
[51] = test system: MDA-MB-435
[52] = test system: RPMI-8226 leukemia
[53] = test system: UACC-257 melanoma
[54] = test system: 786-0 renal

C#C[C@]1(O)CC[C@H]2[C@@H]3CC=C4c5sc(N6CCN(C)CC6)nc5CC[C@]4(C)[C@H]3CC[C@@]21C
GI50 [1]: 1.93 µM
TGI [1]: 3.73 µM
GI50 [2]: 1.7 µM
TGI [2]: 3.33 µM
GI50 [3]: 2.23 µM
TGI [3]: 4.74 µM
GI50 [4]: 2.23 µM
TGI [4]: 5.13 µM
GI50 [5]: 1.78 µM
TGI [5]: 3.38 µM
GI50 [6]: 1.54 µM
TGI [6]: 2.97 µM
GI50 [7]: 2.01 µM
TGI [7]: 4.31 µM
GI50 [8]: 1.83 µM
TGI [8]: 3.39 µM
GI50 [9]: 1.69 µM
TGI [9]: 3.87 µM
GI50 [10]: 1.77 µM
TGI [10]: 3.43 µM
GI50 [11]: 1.89 µM
TGI [11]: 4.66 µM
GI50 [12]: 1.68 µM
TGI [12]: 3.18 µM
GI50 [13]: 1.81 µM
TGI [13]: 3.41 µM
GI50 [14]: 1.71 µM
TGI [14]: 3.27 µM
GI50 [15]: 2.36 µM
TGI [15]: 4.55 µM
GI50 [16]: 1.34 µM
TGI [16]: 4.5 µM
GI50 [17]: 9.83 µM
TGI [17]: 28.8 µM
GI50 [18]: 1.9 µM
TGI [18]: 3.95 µM
GI50 [19]: 1.48 µM
TGI [19]: 3.3 µM
GI50 [20]: 2.42 µM
TGI [20]: 8.44 µM
GI50 [21]: 1.42 µM
TGI [21]: 3.05 µM
GI50 [22]: 1.81 µM
TGI [22]: 3.45 µM
GI50 [23]: 2.18 µM
TGI [23]: 5.71 µM
GI50 [24]: 1.79 µM
TGI [24]: 3.25 µM
GI50 [25]: 1.76 µM
TGI [25]: 4.18 µM
GI50 [26]: 1.92 µM
TGI [26]: 4.08 µM
GI50 [27]: 1.76 µM
TGI [27]: 3.59 µM
GI50 [28]: 1.68 µM
TGI [28]: 3.19 µM
GI50 [29]: 1.94 µM
TGI [29]: 4.02 µM
GI50 [30]: 1.76 µM
TGI [30]: 3.28 µM
GI50 [31]: 1.56 µM
TGI [31]: 5.39 µM
GI50 [32]: 1.98 µM
TGI [32]: 3.83 µM
GI50 [33]: 1.25 µM
TGI [33]: 2.93 µM
GI50 [34]: 1.45 µM
TGI [34]: 2.9 µM
GI50 [35]: 1.83 µM
TGI [35]: 3.8 µM
GI50 [36]: 1.61 µM
TGI [36]: 3.07 µM
GI50 [37]: 1.51 µM
TGI [37]: 2.87 µM
GI50 [38]: 2.06 µM
TGI [38]: 4.35 µM
GI50 [39]: 1.99 µM
TGI [39]: 3.8 µM
GI50 [40]: 1.79 µM
TGI [40]: 3.42 µM
GI50 [41]: 1.74 µM
TGI [41]: 3.17 µM
GI50 [42]: 4.25 µM
TGI [42]: 16.9 µM
GI50 [43]: 12.1 µM
TGI [43]: 30.1 µM
GI50 [44]: 1.87 µM
TGI [44]: 3.96 µM
GI50 [45]: 1.84 µM
TGI [45]: 3.83 µM
GI50 [46]: 1.81 µM
TGI [46]: 3.75 µM
GI50 [47]: 1.74 µM
TGI [47]: 3.2 µM
GI50 [48]: 1.82 µM
TGI [48]: 3.53 µM
GI50 [49]: 1.56 µM
TGI [49]: 3.08 µM
GI50 [50]: 1.87 µM
TGI [50]: 3.62 µM
GI50 [51]: 1.16 µM
TGI [51]: 2.53 µM
GI50 [52]: 1.6 µM
TGI [52]: 4.16 µM
GI50 [53]: 1.77 µM
TGI [53]: 3.27 µM
GI50 [54]: 1.7 µM
TGI [54]: 3.15 µM
